Key:
[1] = molecular target: p45 v-abl tyrosine kinase; experiment: in-vitro p45 v-abl kinase assay ((Val^5)-Angiotension II phosphorylation); type: biochemical, Abelson murine leukaemia virus; settings: ATP 50 μM, fixed peptide concentration, 40 ng abl-kinase, pH 8.0, 30° C.; read-out: Inhibition of p45 kinase, IC50 v-abl
Description: p45 v-abl Kinase Purification
The enzyme used in our test was the p45 v-abl tyrosine kinase which represents the catalytic domain of the Abelson tyrosine kinase (isolated from the Abelson murine leukaemia virus). The p45 v-abl kinase was produced and isolated as described by Wang et al. in J. Biol. Chem. 260, 64 (1985) and by Ferguson et al. in J. Biol. Chem. 260, 3652 (1985) and in Biochem. J. 257, 321 (1989).
(Val^5)-Angiotension II phosphorylation was performed by incubation with 40 ng of purified abl-kinase and (γ-^32 p)-ATP, in 50 μl of buffer containing Tris-HCl 25 mM, pH 8.0, MgCl2 10 mM and dithiothreitol 0.1 mM (kinase buffer). The reaction mixture was incubated for the indicated time at 30° C. and the reaction stopped by adding 50 μl of 5% trichloroacetic acid. After a brief incubation on ice, tubes were centrifuged. The supernatants were spotted on phosphocellulose paper squares (Whatman P-81) and washed extensively in acetic acid. The radioactivity bound to dried phosphocellulose squares was measured in a liquid scintillation counter. IC50 values were calculated from triplicated determinations of each experimental point. Each inhibitor was tested at concentrations ranging from […] in the presence of fixed concentrations of peptide (2 Mm) and ATP (50 μM). […]

K562 cells = experiment: K562 cell growth inhibition assay; type: cell-based; settings: human chronic myeloid leukemia K562 cells, 72 h, cell count vs untreated control
Description: K562 Cell Growth Inhibition Assay
K562 cells, a human myelogenous leukemia cell line, were seeded into a 24 wells tissue culture plate (Falcon 3047) (10000/well) in the presence of increasing concentrations of the compounds. After 72 h, cells were harvested and were counted using a cell counter (Coulter Counter-ZM). The percent of inhibition was evaluated in respect to the untreated control cells.
The inhibitory activity data for a representative group of compounds according to the present invention, obtained both in the in-vitro p45 v-abl kinase assay and in the in-vivo human chronic myeloid leukemia K562 cell growth inhibition assay described above, are set out in following Table 1.

| SMILES | IC50 [1] | IC50 (K562 cells) |
| --- | --- | --- |
| COc1ccc2[nH]cc(C=C3C(=O)Nc4ccc(NC(=O)[C@H](C)NC(=O)[C@@H](N)CCC(=O)O)cc43)c2c1 [FCE 28437, 5-L-glutamyl-L-alanylamino-3-[(5'-methoxy-3'-indolyl)methylene]-2-indolinone] | 500 nM | 14800 nM |
| O=C1Nc2ccc(C(=O)CN3CCCCC3)cc2C1=Cc1c[nH]c2ccccc12 [FCE 28484, 3-(indol-3-ylmethylene)-5-(2-piperidin-1-yl-acetyl)-2-indolinone] | 780 nM | 4820 nM |
